Values of other authors in US20250360113A1, “ADMINISTRATION OF DHB TO INCREASE BENEFIT OF LOSING WEIGHT OF INTERMITTENT FASTING” (NANJING NUTRABUILDING BIO-TECH CO., LTD., priority 2023, published 2025).

Tests used:
[1] = obese db/db mice; cited from earlier work
brown adipocyte = settings: by increasing transcription of PRDM16 via AMPK activation and PGC-1α recruitment; cited from earlier work

In the case of `COc1ccc2cc3[n+](cc2c1OC)CCc1cc2c(cc1-3)OCO2` [BBR, berberine], the “energy expenditure and adaptive thermogenesis” value [1] is given as “increase”, the “thermogenic program in BAT” value [1] is given as “promote” and the weight gain [1] is given as “reduce”. The “brown adipocyte differentiation and brown adipose tissues (BAT) thermogenesis” value (brown adipocyte) was “promote”.
